The values below are quoted from earlier work in patent US20040214804A1, “Combination of an aldosterone receptor antagonist and an anti-obesity agent” (Pharmacia Corporation, priority 2003, published 2004).

For data set [1], the system named is dietary-induced obesity in dogs. The conditions noted are these: during development of dietary-induced obesity.
Data set [2] has as its system severe heart failure patients. The conditions noted are these: left ventricular ejection fraction no more than 35%, on standard therapy (ACE inhibitor, loop diuretic, in some cases digoxin).

Take `COC(=O)[C@@H]1CC2=CC(=O)CC[C@]2(C)[C@@]23O[C@@H]2C[C@@]2(C)[C@@H](CC[C@@]24CCC(=O)O4)[C@H]13` [Eplerenone, Pregn-4-ene-7,21-dicarboxylic acid, 9,11-epoxy-17-hydroxy-3-oxo-,γ-lactone, methyl ester, (7α,11α,17β)-]: in data set [1], the “glomerular hyperfiltration associated with chronic dietary-induced obesity” value is “markedly attenuated”, the “hypertension associated with chronic dietary-induced obesity” value is listed as “markedly attenuated” and the “sodium retention associated with chronic dietary-induced obesity” value is given as “markedly attenuated”.
Regarding `CC(=O)S[C@@H]1CC2=CC(=O)CCC2(C)C2CC[C@]3(C)[C@@H](CC[C@@]34CCC(=O)O4)C21` (stereo partly drawn) [spironolactone, 17-hydroxy-7α-mercapto-3-oxo-17α-pregn-4-ene-21-carboxylic acid γ-lactone acetate], in data set [2], the “incidence of hospitalization relative to placebo-treated subjects” value was “statistically significant reduction” and the “mortality relative to placebo-treated subjects” value was “statistically significant reduction”.
